# ChEMBL document CHEMBL1649326, “First report of the multidrug resistance gene cfr and the phenicol resistance gene fexA in a Bacillus strain from swine feces” (2010)
# Assays:
# [1] = (§1) Antimicrobial activity against Bacillus sp. BS-01 expressing multiple resistance gene cfr and […] resistance gene fexA obtained from swine feces; assay type: functional; details: Bacillus sp. BS-01, Feces
# [2] = test system: Staphylococcus aureus; assay: Antimicrobial activity against Staphylococcus aureus RN4220; assay type: functional
# [3] = test system: Staphylococcus aureus; assay: Antimicrobial activity against Staphylococcus aureus RN4220 harboring pBS-01multiple resistance gene cfr and phenolic resistance gene fexA obtained from swine feces
# [4] = test system: Bacillus sp. BS-01; assay: as §1; assay type: functional
Molecule,MIC [1],MIC [2],MIC [3],MIC [4]
CN[C@H](CC(C)C)C(=O)N[C@H]1C(=O)N[C@@H](CC(N)=O)C(=O)N[C@H]2C(=O)N[C@H]3C(=O)N[C@H](C(=O)N[C@H](C(=O)O)c4cc(O)cc(O)c4-c4cc3ccc4O)[C@H](O)c3ccc(c(Cl)c3)Oc3cc2cc(c3O[C@@H]2O[C@H](CO)[C@@H](O)[C@H](O)[C@H]2O[C@H]2C[C@](C)(N)[C@H](O)[C@H](C)O2)Oc2ccc(cc2Cl)[C@H]1O [VANCOMYCIN],0.5 µg/mL,,,
CS(=O)(=O)c1ccc([C@@H](O)[C@@H](CF)NC(=O)C(Cl)Cl)cc1 [FLORFENICOL],32 µg/mL,16 µg/mL,4 µg/mL,
GENTAMICIN,,0.25 µg/mL,,8 µg/mL
CN(C)[C@@H]1C(O)=C(C(N)=O)C(=O)[C@@]2(O)C(O)=C3C(=O)c4c(O)cccc4[C@@](C)(O)[C@H]3C[C@@H]12 [TETRACYCLINE],32 µg/mL,1 µg/mL,1 µg/mL,
O=C(N[C@H](CO)[C@H](O)c1ccc([N+](=O)[O-])cc1)C(Cl)Cl [CHLORAMPHENICOL],32 µg/mL,16 µg/mL,4 µg/mL,
O=C(O)c1cn(C2CC2)c2cc(N3CCNCC3)c(F)cc2c1=O [CIPROFLOXACIN],8 µg/mL,0.5 µg/mL,0.5 µg/mL,
CC[C@H]1OC(=O)[C@H](C)[C@@H](O[C@H]2C[C@@](C)(OC)[C@@H](O)[C@H](C)O2)[C@H](C)[C@@H](O[C@@H]2O[C@H](C)C[C@H](N(C)C)[C@H]2O)[C@](C)(O)C[C@@H](C)C(=O)[C@H](C)[C@@H](O)[C@]1(C)O [ERYTHROMYCIN],> 64 µg/mL,> 64 µg/mL,0.25 µg/mL,
C=C[C@]1(C)C[C@@H](OC(=O)CSCCN(CC)CC)[C@]2(C)[C@H](C)CC[C@]3(CCC(=O)[C@H]32)[C@@H](C)[C@@H]1O [TIAMULIN],256 µg/mL,32 µg/mL,< 0.5 µg/mL,
CCC[C@@H]1C[C@@H](C(=O)N[C@@H]([C@H]2O[C@H](SC)[C@H](O)[C@@H](O)[C@H]2O)[C@H](C)Cl)N(C)C1 [CLINDAMYCIN],> 32 µg/mL,> 32 µg/mL,< 0.625 µg/mL,
CC(=O)NC[C@H]1CN(c2ccc(N3CCOCC3)c(F)c2)C(=O)O1 [LINEZOLID],2 µg/mL,,1 µg/mL,
